Like-named read-outs stand apart in the source and are kept apart here.
Key:
STAT5 = test: Immunoblotting (Western blot) analysis of STAT5 degradation efficiency of degraders in treated cells; type: cell-based
Summary of the method: (§1)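 About 1 million cells per point, grown in 10% FBS medium at 37 °C/5% CO2, were exposed to compound at the indicated concentrations and times, then lysed in RIPA buffer with protease and phosphatase inhibitors. Equal protein (20-40 μg) was resolved by SDS-PAGE, blotted to PVDF, and probed with anti-STAT5, anti-STAT6 and anti-GAPDH antibodies.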

STAT6 = biological target: T1, STAT6 (Homo sapiens, UniProt P42226); test: Immunoblotting (Western blot) analysis of STAT6 degradation efficiency of degraders in treated cells; type: cell-based
T1 construct: endogenous in cells; host or cells: MOLM-16, KU-812, SKNO1, MB231, L1236
T1 sequence (P42226 1-847): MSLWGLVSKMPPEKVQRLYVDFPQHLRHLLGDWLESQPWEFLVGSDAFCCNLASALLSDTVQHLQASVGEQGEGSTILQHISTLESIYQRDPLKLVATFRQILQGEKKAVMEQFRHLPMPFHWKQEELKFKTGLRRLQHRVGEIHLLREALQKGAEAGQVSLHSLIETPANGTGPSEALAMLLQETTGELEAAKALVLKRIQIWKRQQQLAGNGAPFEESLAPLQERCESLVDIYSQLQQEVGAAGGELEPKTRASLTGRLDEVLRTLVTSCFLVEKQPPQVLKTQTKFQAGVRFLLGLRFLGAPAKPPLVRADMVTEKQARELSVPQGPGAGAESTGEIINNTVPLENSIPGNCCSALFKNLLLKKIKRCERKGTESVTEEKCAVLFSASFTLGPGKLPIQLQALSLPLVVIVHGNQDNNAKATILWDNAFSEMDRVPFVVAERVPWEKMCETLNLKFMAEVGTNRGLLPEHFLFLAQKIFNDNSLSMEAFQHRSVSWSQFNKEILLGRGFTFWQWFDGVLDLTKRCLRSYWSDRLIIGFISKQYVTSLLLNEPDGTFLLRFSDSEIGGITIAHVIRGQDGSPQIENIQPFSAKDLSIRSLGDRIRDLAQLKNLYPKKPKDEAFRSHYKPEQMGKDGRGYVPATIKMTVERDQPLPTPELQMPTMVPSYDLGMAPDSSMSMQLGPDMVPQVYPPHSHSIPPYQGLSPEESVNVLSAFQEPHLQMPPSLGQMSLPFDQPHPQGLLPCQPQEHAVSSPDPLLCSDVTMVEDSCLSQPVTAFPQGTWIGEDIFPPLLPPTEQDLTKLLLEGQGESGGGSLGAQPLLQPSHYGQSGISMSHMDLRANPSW
Summary of the method: as §1

[1] = KU-812 cells, read-out: DC50 S5 KU-812
[2] = MOLM-16 cells, class symbols, read-out: DC50 S5 MOLM-16
[3] = SKNO1 cells, read-out: DC50 S5 SKNO1
[4] = MOLM-16 cells, numeric bound, read-out: DC50 S6 MOLM-16
[5] = MOLM-16 cells, numeric bound, read-out: DC50 S5 MOLM-16
[6] = MOLM-16 cells, class symbols, read-out: DC50 S6 MOLM-16
[7] = KU-812 cells, read-out: DC50 S6 KU-812

SMILES	DC50 (STAT5; [1])	DC50 (STAT5; [2])	DC50 (STAT5; [3])	DC50 (STAT6; [4])	also measured
CC(C)(C)[C@H](NC(=O)c1cc2cc(C(F)(F)P(=O)(O)O)ccc2s1)C(=O)N1C[C@H](NC(=O)CCCCCC#Cc2ccc3c(c2)CN(C2CCC(=O)NC2=O)C3=O)C[C@H]1C(=O)Nc1ncc(-c2ccccc2)s1 (stereo partly drawn) [Compound 568, ((2-(((2S)-1-((2S,4R)-4-(8-(2-(2,6-dioxopiperidin-3-yl)-1-oxoisoindolin-5-yl)oct-7-ynamido)-2-((5-phenylthiazol-2-yl)carbamoyl)pyrrolidin-1-yl)-3,3-dimethyl-1-oxobutan-2-yl)carbamoyl)benzo[b]thiophen-5-yl)difluoromethyl)phosphonic acid]				> 300 nM	DC50 (STAT5; [5]): > 300 nM
CN(C(=O)[C@@H]1C[C@@H](OCC(=O)NCCCCCC#Cc2cccc3c2CN(C2CCC(=O)NC2=O)C3=O)CN1C(=O)[C@@H](NC(=O)c1cc2cc(C(F)(F)P(=O)(O)O)ccc2s1)C(C)(C)C)c1ccc(Br)cc1 (stereo partly drawn) [Compound 412, ((2-(((2S)-1-((2S,4R)-2-((4-bromophenyl)(methyl)carbamoyl)-4-(2-((7-(2-(2,6-dioxopiperidin-3-yl)-1-oxoisoindolin-4-yl)hept-6-yn-1-yl)amino)-2-oxoethoxy)pyrrolidin-1-yl)-3,3-dimethyl-1-oxobutan-2-yl)carbamoyl)benzo[b]thiophen-5-yl)difluoromethyl)phosphonic acid]			> 10000 nM		DC50 (STAT6; L1236 cells, read-out: DC50 S6 L1236): > 10000 nM; DC50 (STAT6; MB231 cells, read-out: DC50 S6 MB231): > 10000 nM
CC(C)(C)[C@H](NC(=O)c1cc2cc(C(F)(F)P(=O)(O)O)ccc2s1)C(=O)N1CCC[C@H]1C(=O)N(CCC(=O)NCCCCC#Cc1cccc2c1CN(C1CCC(=O)NC1=O)C2=O)c1ccc(Br)cc1 (stereo partly drawn) [Compound 686, ((2-(((2S)-1-((2S)-2-((4-bromophenyl)(3-((6-(2-(2,6-dioxopiperidin-3-yl)-1-oxoisoindolin-4-yl)hex-5-yn-1-yl)amino)-3-oxopropyl)carbamoyl)pyrrolidin-1-yl)-3,3-dimethyl-1-oxobutan-2-yl)carbamoyl)benzo[b]thiophen-5-yl)difluoromethyl)phosphonic acid]	100 to 1000 nM				DC50 (STAT6; [7]): > 10000 nM

The next lines start with results.

DC50 (STAT5; [1])	DC50 (STAT5; [2])	DC50 (STAT5; [3])	DC50 (STAT6; [4])	SMILES	also measured
100 to 1000 nM	< 100 nM	100 to 1000 nM	> 300 nM	CC(C)(C)[C@H](NC(=O)c1cc2cc(C(F)(F)P(=O)(O)O)ccc2s1)C(=O)N1CCC[C@H]1C(=O)N(CCC(=O)NCCCC#Cc1cccc2c1CN(C1CCC(=O)NC1=O)C2=O)c1ccc2occc2c1 (stereo partly drawn) [Compound 661, ((2-(((2S)-1-((2S)-2-(benzofuran-5-yl(3-((5-(2-(2,6-dioxopiperidin-3-yl)-1-oxoisoindolin-4-yl)pent-4-yn-1-yl)amino)-3-oxopropyl)carbamoyl)pyrrolidin-1-yl)-3,3-dimethyl-1-oxobutan-2-yl)carbamoyl)benzo[b]thiophen-5-yl)difluoromethyl)phosphonic acid]	
		> 10000 nM	> 300 nM	CC(C)(C)[C@H](NC(=O)c1cc2cc(C(F)(F)P(=O)(O)O)ccc2s1)C(=O)N1CCC[C@H]1C(=O)N(CCC(=O)NCCCC#Cc1cccc2c1CN(C1CCC(=O)NC1=O)C2=O)c1ccc2c(c1)CCCO2 (stereo partly drawn) [Compound 669, ((2-(((2S)-1-((2S)-2-(chroman-6-yl(3-((5-(2-(2,6-dioxopiperidin-3-yl)-1-oxoisoindolin-4-yl)pent-4-yn-1-yl)amino)-3-oxopropyl)carbamoyl)pyrrolidin-1-yl)-3,3-dimethyl-1-oxobutan-2-yl)carbamoyl)benzo[b]thiophen-5-yl)difluoromethyl)phosphonic acid]	DC50 (STAT5; [5]): > 300 nM
100 to 1000 nM	< 100 nM	100 to 1000 nM		CN(CCCC#Cc1cccc2c1CN(C1CCC(=O)NC1=O)C2=O)C(=O)CCN(C(=O)[C@@H]1CCCN1C(=O)[C@@H](NC(=O)c1cc2cc(C(F)(F)P(=O)(O)O)ccc2s1)C(C)(C)C)c1ccc2ccccc2c1 (stereo partly drawn) [Compound 680, ((2-(((2S)-1-((2S)-2-((3-((5-(2-(2,6-dioxopiperidin-3-yl)-1-oxoisoindolin-4-yl)pent-4-yn-1-yl)(methyl)amino)-3-oxopropyl)(naphthalen-2-yl)carbamoyl)pyrrolidin-1-yl)-3,3-dimethyl-1-oxobutan-2-yl)carbamoyl)benzo[b]thiophen-5-yl)difluoromethyl)phosphonic acid]	DC50 (STAT6; [6]): > 10000 nM
100 to 1000 nM	< 100 nM	100 to 1000 nM		CN(CCCC#Cc1cccc2c1CN(C1CCC(=O)NC1=O)C2=O)C(=O)CCN(C(=O)[C@@H]1CCCN1C(=O)[C@@H](NC(=O)c1cc2cc(C(F)(F)P(=O)(O)O)ccc2s1)C(C)(C)C)c1ccc(-c2nccs2)cc1 (stereo partly drawn) [Compound 681, ((2-(((2S)-1-((2S)-2-((3-((5-(2-(2,6-Dioxopiperidin-3-yl)-1-oxoisoindolin-4-yl)pent-4-yn-1-yl)(methyl)amino)-3-oxopropyl)(4-(thiazol-2-yl)phenyl)carbamoyl)pyrrolidin-1-yl)-3,3-dimethyl-1-oxobutan-2-yl)carbamoyl)benzo[b]thiophen-5-yl)difluoromethyl)phosphonic acid]	DC50 (STAT6; [7]): > 10000 nM; DC50 (STAT6; [6]): > 10000 nM; DC50 (STAT6; SKNO1 cells, read-out: DC50 S6 SKNO1): > 10000 nM

From patent US20230295197A1, “STAT5 and STAT6 Degraders and Uses Thereof” (REGENTS OF THE UNIVERSITY OF MICHICAN, priority 2022, published 2023)
